What was measured:
[1] = Particle size distribution; assay type: physicochemical
[2] = as mentioned in WO2008/069327 A1; cited from earlier work
[3] = cited from earlier work

| Particle size distribution D(0.1) [1] [μm] | Particle size distribution D(0.5) [1] [μm] | Particle size distribution D(0.9) [1] [μm] | SMILES | stability and handling of amorphous form [2] | physical change between the sorption/desorption cycle ([3]; DVS, two cycles, appearance changed as humidity increased from 70% to 90% RH) | hygroscopic nature confirmed by Dynamic vapor sorption (DVS) analysis ([3]; amorphous canagliflozin prepared per US'487 A1 (toluene solution into n-heptane)) |
| --- | --- | --- | --- | --- | --- | --- |
| 28.7 | 61.4 | 116.4 | Cc1ccc([C@@H]2O[C@H](CO)[C@@H](O)[C@H](O)[C@H]2O)cc1Cc1ccc(-c2ccc(F)cc2)s1 [Example-4, (1S)-1,5-anhydro-1-[3-[[5-(4-fluorophenyl)-2-thienyl]methyl]-4-methylphenyl]-D-glucitol] | – | – | – |
| – | – | – | Cc1ccc([C@@H]2O[C@H](CO)[C@@H](O)[C@H](O)[C@H]2O)cc1Cc1ccc(-c2ccc(F)cc2)s1 [amorphous canagliflozin, (1S)-1,5-anhydro-1-[3-[[5-(4-fluorophenyl)-2-thienyl]methyl]-4-methylphenyl]-D-glucitol] | suffers from stability and handling issues such as poor filterability | conversion or partial conversion from the amorphous state to a crystalline state | hygroscopic |
| 3.29 | 7.69 | 14.5 | Cc1ccc([C@@H]2O[C@H](CO)[C@@H](O)[C@H](O)[C@H]2O)cc1Cc1ccc(-c2ccc(F)cc2)s1 [Example-2, (1S)-1,5-anhydro-1-[3-[[5-(4-fluorophenyl)-2-thienyl]methyl]-4-methylphenyl]-D-glucitol] | – | – | – |
